Test results published in patent publication US20230348866A1, “BI[…] FOR THE PRODUCTION OF CANNABINOIDS AND OTHER […]” (The Regents of the University of California, priority 2019, published 2023).

Experiments:
[1] = system: MatB pathway (RpMatB, CsAAE3, CsOLS, CsOAC); test: OA/DA production using the MatB pathway with additives; assay type: biochemical; settings: titer at 4 hours relative to control
Description: (§1) OA/DA Reaction Conditions using MatB. The conditions for reactions using RpMatB to produce malonyl-CoA were as follows: 15 mM malonate, 5 mM hexanoate or 5 mM butyrate, 1 mM CoA, 4 mM ATP, 25 mM creatine phosphate, 10 mM KCl, 5 mM MgCl2 and 50 mM Tris pH 8.0, 1.3 μM RpMatB, 4.9 μM CsAAE3, 2.9 μM CsOLS, 46.6 μM CsOAC, 7.6 μM GsPpase, 2.6 μM ADK and 2 units of CPK (from Sigma Aldrich). For the additive reactions GPP (0.5-2 mM), OA (0.25-2 mM) and DA (0.25-5 mM) were added before the reaction was initiated.
For the time course, the reactions were quenched (see below) at various time points between 5 mins and 5 hours. The reactions with additives were quenched at 4 hours.
HPLC Sample Analysis. All samples were quenched by 4-fold dilution into methanol (samples with a higher concentration of analyte were diluted up to 10-fold). The protein precipitate was removed by centrifugation at 16,000×g for 5 minutes and the supernatant was transferred to an LC vial for analysis.
Samples were analyzed by reverse phase chromatography on a Syncronis C8 column (4.6×100 mm) using a Thermo Ultimate 3000 HPLC. The column compartment temperature was set to 40° C., and the flow rate was 1 mL/min. The sample inject volume was 20 μL (full loop). The compounds were separated using a gradient elution with water+0.1% TFA (solvent A) and acetonitrile+0.1% TFA (solvent B) as the mobile phase. Solvent B was held at 20% for the first minute. Then solvent B was increased to 95% B over 4 minutes, and held at 95% B for 3 minutes. The column was then re-equilibrated to 20% B for three minutes, for a total run time of 11 minutes. Standards were used to identify the retention time, and to produce an external standard curve for quantification.

[2] = target: T1, OLS (Cannabis sativa, UniProt B1Q2B6); test: OLS activity assay (inhibition by OA/DA); assay type: biochemical, C. sativa; settings: for inhibition of OLS activity: individual enzymes screened, 250 μM OA or 1 mM DA
T1 construct: CsAAE3, CsOLS and CsOAC were synthesized and cloned into the pET28(+) vector with Nde1/Xho1 restriction sites; made in house; host or cells: E. coli C43 BL21 (DE3)
T1 sequence (B1Q2B6 with tags, fused parts or gaps): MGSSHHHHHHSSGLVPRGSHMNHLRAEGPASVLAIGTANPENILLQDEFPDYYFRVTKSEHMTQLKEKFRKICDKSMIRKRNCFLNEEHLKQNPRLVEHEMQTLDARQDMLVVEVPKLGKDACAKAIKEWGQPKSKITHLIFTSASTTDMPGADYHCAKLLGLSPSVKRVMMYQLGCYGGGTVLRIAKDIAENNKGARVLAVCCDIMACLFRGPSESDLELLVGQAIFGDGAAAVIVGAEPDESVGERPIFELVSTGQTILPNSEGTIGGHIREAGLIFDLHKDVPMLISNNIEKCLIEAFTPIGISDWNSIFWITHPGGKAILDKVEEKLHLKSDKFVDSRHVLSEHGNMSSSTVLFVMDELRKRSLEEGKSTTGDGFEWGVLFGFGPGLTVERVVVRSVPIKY
Description: OLS Activity Assay. For the inhibition experiments the conditions were altered to: 1 mM malonyl-CoA, 400 μM hexanoyl-CoA in 50 mM citrate buffer, pH 5.5 in a final volume of 200 μL. Either 1% ethanol, 250 μM OA or 1 mM DA was added to the reaction, and then the reactions were initiated by adding 0.65 mg/mL OLS. 50 μL aliquots were quenched at 2, 4, 6 and 8 minutes in 150 μL of methanol. The reactions were vortexed briefly and centrifuged at 16,000×g for 2 minutes to pellet the proteins. The supernatant was analyzed by HPLC. The raw peak areas of HTAL, PDAL and olivetol were summed and plotted against time to determine the rate. The rate of the OA supplemented reaction and the DA supplemented reaction were normalized to the ethanol control.

[3] = system: OA pathway; test: RpMatB reaction system with added GPP and NphB M31^S; assay type: biochemical; settings: increasing GPP (0.5-2 mM)
Description: as §1
In an effort to reduce OA/DA inhibition, experiments were performed to remove OA/DA from the reaction as it is made by converting it directly into CBGA/CBGVA. To test this GPP and a stabilized CBGA synthase were added to the system (FIG. 6). The CBGA synthase used, NphB M31^S, is a stabilized version of the soluble enzyme designed previously (Valliere et al., Nat. Commun. 10:565, 2019). […] Experiments were performed to test the effect of GPP concentration on OA production. At just 500 μM GPP, OA production decreased 40% percent (FIG. 2C).

Compound | reduction of DA production ([1]; 1 mM OA added at time zero) | inhibition of OLS activity [2] | inhibition of enzyme activity, comparison among enzymes ([2]; reaction relevant conditions) | reduction of OA production ([1]; 1 mM DA added at time zero) | decrease of OA production ([1]; 500 μM GPP added) | overall production of OA and CBGA [3]
CCCCCc1cc(O)cc(O)c1C(=O)O [OA, olivetolic acid] | 90% | strongly inhibited | CsOLS is the most inhibited |  |  | 
CCCc1cc(O)cc(O)c1C(=O)O [DA, divarinic acid] |  | strongly inhibited |  | 30% |  | 
CC(C)=CCC/C(C)=C/COP(=O)(O)OP(=O)(O)O [GPP, geranyl pyrophosphate] |  |  |  |  | 40% | decrease
